We go through four compounds from patent publication US9526718B2, “Combination of effective substances causing synergistic effects of multiple targeting and use thereof” (VIVOZON, INC., priority 2011, dated 2016).

One assay has as its system serotonin release. The conditions noted are these: hypothalamic, rat; cited from earlier work.
Assay [1] concerns neuropathic pain rat model (SNL). Nature of the assay: Neuropathic pain rat model (spinal nerve ligation, SNL), von Frey up-down mechanical threshold. In kind it is in vivo. The conditions noted are these: Example 1, s.c., alone or combined, MDL 11,939 2 or 5 mg/kg, ORG-25543 10 or 20 mg/kg, 30 and 60 min after administration. As for the experimental part: In order to prepare a neuropathic pain rat model (spinal nerve ligation (SNL) model), a male adult Sprague-Dawley rat was anaesthetized with isoflurane and its spinal nerves L5 were tied firmly (Kim and Chung, An experimental model for peripheral neuropathy produced by segmental spinal nerve ligation in the rat. Pain, 50: 355-363, 1992). One week later after surgical operation, MDL 11,939 and ORG-25543 were administered respectively or in combination thereof, and a pain relieving effect was monitored.
MDL 11,939 (Tocris Bioscience, USA) and ORG-25543 (CBvest inc, Korea) were dissolved in DMA/PG (2:8). MDL 11,939 was subcutaneously injected into the rat model and, immediately, ORG-25543 was subcutaneously injected into another part of the rat model. Then, 30 minutes and 60 minutes after administration, the extent of pain suppression was analyzed based on behaviors of the rat model.
The behavioral experiment was carried out with strict observance of clinical test procedures including criteria on randomization, a blind test, and use of a control group. By providing a mechanical stimulus to the left sole of the foot, a shrinking reaction to the stimulus was measured. This measurement value was determined by an up-down method using a von Frey monofilament (Baik et al., 2003 E. J. Baik, J. M. Chung and K. Chung, Peripheral norepinephrine exacerbates neuritis-induced hyperalgesia, J Pain 4 (2003), pp. 212-221; Chaplan et al., 1994 S. R. Chaplan, F. W. Bach, J. W. Pogrel, J. M. Chung and T. L. Yaksh, Quantitative assessment of tactile allodynia in the rat paw, J Neurosci Methods 53 (1994), pp. 55-63; Dixon, 1980 W. J. Dixon, Efficient analysis of experimental observations, Annu. Rev. Pharmacol. Toxicol. 20 (1980), pp. 441-462).
In the same manner as Example 1, a male adult Sprague-Dawley rat was anaesthetized with isoflurane and its spinal nerves L5 were tied firmly. […]

For the next assay, the target named is 5-HT2A receptor (Homo sapiens, UniProt P28223). The conditions noted are these: cited from earlier work.

Molecules are shown by their SMILES.

Sequence of 5-HT2A receptor (P28223 whole entry): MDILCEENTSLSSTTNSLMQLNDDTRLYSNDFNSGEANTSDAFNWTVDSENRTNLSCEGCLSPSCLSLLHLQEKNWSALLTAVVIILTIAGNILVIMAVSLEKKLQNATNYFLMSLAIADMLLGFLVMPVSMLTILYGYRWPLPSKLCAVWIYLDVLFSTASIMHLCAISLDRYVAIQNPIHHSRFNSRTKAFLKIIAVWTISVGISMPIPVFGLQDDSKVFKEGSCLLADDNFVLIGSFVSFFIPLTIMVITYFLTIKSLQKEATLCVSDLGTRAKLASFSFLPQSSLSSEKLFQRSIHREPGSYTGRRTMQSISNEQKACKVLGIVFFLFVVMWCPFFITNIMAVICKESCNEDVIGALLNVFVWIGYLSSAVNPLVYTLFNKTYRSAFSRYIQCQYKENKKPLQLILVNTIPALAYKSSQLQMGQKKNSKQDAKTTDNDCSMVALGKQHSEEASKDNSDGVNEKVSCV

In the case of `COc1cc2c(cc1OC)[C@@H]1Cc3ccc(OC)c(OC)c3CN1CC2` [d1-tetrahydropalmatine], the serotonin release entry with serotonin release was “mediates inhibition of serotonin release”.

On to `COc1cc(C(=O)NCC2(N(C)C)CCCC2)cc(OC)c1OCc1ccccc1` [ORG-25543], for which the entries for the “pain relieving (analgesic) effect” value in assay [1] and in assay [1] (listed as ORG2553) were “no effect” and “no or very little pain relieving effect”, respectively.

Take `OC(c1ccccc1)C1CCN(CCc2ccccc2)CC1` (centres unmarked) [MDL 11,939]: the “pain relieving (analgesic) effect” value in assay [1] is recorded as “no or very little pain relieving effect”.

As to `CC(C)=CCc1c(O)cc2oc3cc(O)c(O)c(CC=C(C)C)c3c(=O)c2c1O` [γ-mangostin], on 5-HT2A receptor, the “antagonistic effect with respect to 5-HT2A receptor” value is given as “antagonistic effect”.
